# Assay results from article PMC11645267, “Novel pharmacologic inhibition of lysine-specific demethylase 1 as a potential therapeutic for glioblastoma” (Cancer Gene Therapy, 2024).
# What was measured:
# MAO-B = molecular target: T1, MAO-B (Homo sapiens, UniProt P27338); experiment: Enzyme inhibition assay (in vitro peroxidase assay) against MAO-B
# T1 sequence (P27338 1-520): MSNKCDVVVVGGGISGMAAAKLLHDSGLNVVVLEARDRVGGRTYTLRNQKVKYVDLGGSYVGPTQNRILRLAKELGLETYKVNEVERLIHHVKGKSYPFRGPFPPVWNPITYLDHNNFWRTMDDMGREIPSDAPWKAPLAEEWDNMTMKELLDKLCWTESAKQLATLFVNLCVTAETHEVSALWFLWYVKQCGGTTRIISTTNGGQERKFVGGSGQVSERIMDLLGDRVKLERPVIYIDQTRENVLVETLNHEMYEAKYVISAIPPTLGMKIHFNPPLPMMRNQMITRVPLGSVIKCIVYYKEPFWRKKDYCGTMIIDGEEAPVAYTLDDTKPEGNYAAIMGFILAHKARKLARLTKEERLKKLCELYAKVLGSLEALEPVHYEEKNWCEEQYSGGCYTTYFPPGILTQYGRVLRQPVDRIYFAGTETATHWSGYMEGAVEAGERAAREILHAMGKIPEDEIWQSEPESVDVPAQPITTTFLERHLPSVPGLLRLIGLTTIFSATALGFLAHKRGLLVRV
# Description: Enzyme inhibition assays against LSD1, LSD2, MAO-A, and MAO-B were performed as previously described [25]. Technical replicates, n = 3.
# [1] = test system: GSC1228, GSC222, and GSC316; experiment: Western blot of global histone modifications; assay type: cell-based; conditions: 5 μM, 96 h; changes not statistically significant
# Description: The effects of S2172 on global histone modifications in GSCs were examined using western blot analysis. GSC cells were treated with 5 μM of S2172 since […] of the cells are still viable at this concentration (Fig. 2, Supplementary Fig. S1E). […] Treatment of GSCs with S2172 increased the overall levels of H3K4me2 as well as H3K9me2. However, these changes were not statistically significant (Fig. 2A, B).
# Fig. 2 S2172 affected H3K4me2 modifications. A Western blot analysis of H3K4me1, H3K4me2, H3K4me3, H3K9me2, and H3 after treatment with either DMSO or S2172 (5 μM) for 96 h in GSC1228, GSC222, and GSC316. Histone H3 was used as the loading control. B Quantification of band signal intensities from the western blot of A. The y-axis in the panel indicates relative signal intensity of each protein normalized to histone H3. Error bars indicate the SD. […]
# The density of bands was quantified using ImageJ software (https://imagej.nih.gov/ij/). […]
# When mice were scanned with MRI, mice were anesthetized with isoflurane (3% in air) and placed in MRS 3017 Benchtop MRI Systems (MR Solutions, Guildford, UK). Using MRI images, tumor volumes were obtained by compiling tumor areas from all slices that contained tumors and calculated by ImageJ software (https://imagej.nih.gov/ij/) {Towner, […]
compound,measurement,setting,value
NC1CCC(NC2CC2c2cc(F)cc(F)c2OCc2ccccc2)CC1 (stereo not drawn) [S2172],Ki,MAO-B,> 250 µM
same,Inhibition of MAO-B (in words),MAO-B; in vitro peroxidase assay,not inhibited
same,overall levels of H3K4me2 and H3K9me2,[1],increased
